The numbers were not newly measured in patent publication US9757374B2, “Aripiprazole compositions and methods for its transdermal delivery” (Aequus Pharmaceuticals Inc., priority 2010, dated 2017), which cites them from elsewhere.

`O=C1CCc2ccc(OCCCCN3CCN(c4cccc(Cl)c4Cl)CC3)cc2N1` [ARPZ, Aripiprazole]: the solubility in water result was “practically insoluble”.
